Test results taken from the METLIN SMRT retention time set (Domingo-Almenara et al. 2019).

Test: gradient 5% acetonitrile 3 min, to 50% in 2 min, to 85% in 15 min, held 3 min, 100 µL/min
Conditions: column: Zorbax Extend-C18 2.1 x 50 mm; eluents: water / acetonitrile, 0.1% formic acid
Summary of the method: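 Retention time was recorded from adduct peaks, which were picked computationally and each inspected manually. Pure standards ran in mixtures of ~100 molecules on HPLC coupled to a quadrupole time-of-flight mass spectrometer, in positive and negative ionization mode, through a Zorbax Extend-C18 column (2.1 × 50 mm, 1.8 μm) at 100 μL/min. Eluents were water and acetonitrile, each with 0.1% formic acid.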

Row | SMILES | RP-LC retention time
1 | COc1cccc(NC(=O)Cn2c(N3CCOCC3)nc(C)cc2=O)c1 | 652 s
2 | COc1cccc(S(=O)(=O)N2C[C@@H]3C[C@H]2C[C@@H]3NC(=O)c2cccnc2)c1 | 676 s
3 | COC(=O)c1ccccc1NC(=O)c1c(O)c2cccnc2n(-c2ccc(F)cc2)c1=O | 1180 s
4 | Cc1cccc(CNC(=O)Cn2c(C)cc(-c3nnc(-c4ccccc4)o3)c2C)c1 | 921 s
5 | CC(=O)Nc1ccc(C2=NN(C(C)=O)C(c3ccc4c(c3)OCO4)C2)cc1 (stereo not drawn) | 666 s
6 | CC(C)n1cnc2ccc(-c3noc(COc4ccccc4)n3)cc21 | 770 s
7 | O=C(Nc1cccc2c(=O)cc(-c3nn[nH]n3)oc12)c1ccc(OCCCCc2ccccc2)cc1 | 1180 s
8 | CCN1C(=O)c2cc(S(=O)(=O)Nc3ccc(F)c(C)c3)ccc2Oc2cccnc21 | 1060 s
9 | COC(=O)c1[nH]c2c(c1C)C(=O)CC(c1cc(OC)c(OC)c(OC)c1)C2 (stereo not drawn) | 781 s
10 | Cn1c(C(=O)NCc2ccccc2Cl)cc2sc(Cl)cc21 | 1260 s
11 | Cc1ccc(-c2noc(-c3cccc(S(=O)(=O)NC4CCCC4)c3)n2)cc1 | 1360 s
12 | O=C(Cc1cccs1)N1CCN(c2cnn3cnnc3c2)CC1 | 585 s
13 | CCn1c(=O)c(N2CCC(C(=O)NC3CCCCCCC3)CC2)nc2cccnc21 | 1080 s
14 | CC1Oc2ccccc2N(CC(=O)N2CCCN(c3cc(=O)n(C(C)C)c(=O)n3C(C)C)CC2)C1=O (stereo not drawn) | 845 s
15 | CC(C)Oc1ccc(CNC(=O)C2CCCN(c3ccc(=O)n(-c4cccc(Cl)c4)n3)C2)cc1 (stereo not drawn) | 946 s
16 | CC(C)Cn1c(=O)c(N2CCN(C(=O)C(C)C)CC2)nc2ccccc21 | 1020 s
17 | CCCc1nc2c(c(=O)n1CC(=O)NCc1cccs1)CCN(Cc1ccccc1)C2 | 641 s
18 | O=C(CC1CCNCC1)N1CCC(CCOc2cccnc2)CC1 | 544 s
19 | O=C(Nc1ccccc1F)c1c(O)c2cccnc2n(-c2ccc(F)cc2)c1=O | 1220 s
20 | C=CCn1c(SCCC(=O)O)nnc1-c1cccs1 | 616 s
21 | Cc1ccccc1Oc1nccn2c(=O)n(CC(=O)Nc3cc(F)ccc3F)nc12 | 908 s
22 | COc1ccc(-c2cn3c(CC(=O)Nc4cccc(C(F)(F)F)c4)csc3n2)cc1OC | 841 s

Row | SMILES | RP-LC retention time
23 | CCN1c2ccc(F)cc2C(=O)NC12CCN(C(=O)c1ccc(C)cc1C)CC2 | 861 s
24 | CCCCN(C)S(=O)(=O)c1cc(-c2nnc(C3CCCC3)o2)co1 | 1060 s
25 | CN1C(=O)c2cc(S(=O)(=O)Nc3cc(F)cc(F)c3)ccc2Oc2cccnc21 | 936 s
26 | CC(C)n1c(N2CCN(C(=O)CSc3ccccc3)CC2)cc(=O)n(C(C)C)c1=O | 902 s
27 | COc1ccc(NC(=O)N2CCC(n3cnnc3C3CC3)C2)c(OC)c1 (stereo not drawn) | 610 s
28 | O=C(NC1CCCCC1)C1CCN(c2cnc(N3CCCC3)nc2)CC1 | 649 s
29 | COc1cccc(-c2nc(-c3ccc(S(=O)(=O)N4CCCC4)cc3)no2)c1 | 1180 s
30 | Cc1cccc(CN2C(=O)CCc3c(C)nc(-c4ccncc4)nc32)c1 | 764 s
31 | COC(=O)c1cn(CC(=O)Nc2cc(Cl)ccc2OC)c2nc(C)ccc2c1=O | 780 s
32 | Cc1ccc(-c2nc(-c3ccc4nnc(C)n4c3)no2)c(C)c1 | 1140 s
33 | CCC1CN2C=Nc3oc(C)c(C(=O)Nc4ccc(F)c(Cl)c4)c3C2=N1 (stereo not drawn) | 704 s
34 | Cc1cccc(NC(=O)Cn2ncc3c(c2=O)N(C2CC2)C(=O)CS3)c1C | 714 s
35 | COc1ccccc1N1CCN(c2cc(SCC(=O)NCc3ccc(Cl)cc3)ncn2)CC1 | 1110 s
36 | Cc1ccc(C2CCCN2C(=O)Nc2ccc3c(c2)OCCO3)cc1 (stereo not drawn) | 922 s
37 | CC(=O)c1ccc(C)cc1OC(=O)c1cccc2nc(C)oc12 | 661 s
38 | COc1cc(NC(=O)CN2C(=O)C(C)(C)c3ccccc32)cc(OC)c1OC | 784 s
39 | COCCCNC(=O)c1ccc(Oc2nccnc2N2CCC(C)CC2)cc1 | 956 s
40 | Cc1nn(C)c(=O)c2cc(S(=O)(=O)N3CCC(Cc4ccccc4)CC3)cn12 | 943 s
41 | CC(=O)Nc1ccc(CC(=O)N2C[C@@H]3CCN(S(C)(=O)=O)C[C@]3(CF)C2)cc1 | 617 s
42 | N#Cc1ccc(C(=O)N2CC(n3cc(C(=O)NCC4CC4)nn3)C2)cc1 | 701 s
43 | O=C(c1cncc(Br)c1)N1CCC(Cc2nc(-c3ccc(Cl)cc3)no2)CC1 | 1050 s
44 | Cc1cn(C)nc1C(=O)Nc1nnc(-c2cccs2)o1 | 647 s

Row | SMILES | RP-LC retention time
45 | COCC(=O)N(C1CCOCC1)C1CCN(S(=O)(=O)c2ccc(F)c(F)c2)CC1 | 788 s
46 | Cn1c(CCNC(=O)c2ccc(C(C)(C)C)cc2)nc2cccnc21 | 705 s
47 | Cn1cc2nc(SCC(=O)Nc3ccc(Cl)cc3F)n(CC3CC3)c(=O)c2n1 | 954 s
48 | CCN1C(=O)C2CC3(CCN(Cc4cn(C)c5ccc(OC)cc45)CC3)CN2C1=O (stereo not drawn) | 584 s
49 | CC1=C(c2ccc(F)cc2)S(=O)(=O)N=C1N1CCC(NC(=O)c2ccoc2)CC1 | 747 s
50 | Cc1cc(C(=O)Nc2nnc(-c3cc4ccccc4o3)o2)c(C)o1 | 812 s
51 | Cc1cccc(OCc2nc(-c3ccc4c(c3)nnn4CCC(=O)N3CCCC3)no2)c1 | 923 s
52 | CCC(C)NC(=O)c1n[nH]c2c1CCCCCC2 (stereo not drawn) | 850 s
53 | O=C(Nc1ncc(Cc2ccccc2Cl)s1)c1cc2ccccc2c(=O)o1 | 991 s
54 | CCc1ccc(Oc2cc(N3CCC(C(=O)NCCC(C)C)CC3)ncn2)cc1 | 1040 s
55 | O=C(NCc1ccc2c(c1)OCO2)C1CCCN(c2nnc3ccccn23)C1 (stereo not drawn) | 573 s
56 | CCN1C(=O)SC(CC(=O)O)C1=O (stereo not drawn) | 948 s
57 | CCOC(=O)c1[nH]c(C)c(CN(CC2CCCO2)C(=O)c2ccc(OC)cc2)c1C (stereo not drawn) | 852 s
58 | COc1ccccc1N1CCN(C(=O)CN2C(=O)CC(c3cccs3)=Nc3ccccc32)CC1 | 898 s
59 | CCN(C(=O)c1ccccc1Br)c1nc(-c2ccccc2)cs1 | 1330 s
60 | O=C(NCCC1CCN(S(=O)(=O)c2ccc(F)cc2)CC1)Nc1ccc(F)cc1 | 909 s
61 | CCc1cccc(N2C=C(C(=O)N3CCOCC3)S(=O)(=O)c3ccc(F)cc32)c1 | 858 s
62 | Cc1ccc(S(=O)(=O)N2CCC(C(=O)NCCc3csc(-c4cccs4)n3)CC2)cc1 | 913 s
63 | COc1cccc(CNC(=O)COc2ccc(NC(=O)C3CC3)cn2)c1OC | 591 s
64 | Cc1ccccc1-c1cc(C(N)=O)c2ccccc2n1 | 718 s
65 | CCN1C(=O)C2CCC(=O)N2c2ccc(C(=O)NCc3ccco3)cc21 (stereo not drawn) | 674 s
66 | CN1C(=O)c2cccnc2Sc2cc(NC(=O)c3ccc(OC(F)(F)F)cc3)ccc21 | 936 s

Row | SMILES | RP-LC retention time
67 | COCCN1C(=O)c2cccn2CC1CNC(=O)c1sc(C)nc1C (stereo not drawn) | 606 s
68 | O=C(Cn1nc2c3cc(-c4ccc(F)cc4)nn3ccn2c1=O)Nc1ccccc1Br | 945 s
69 | CCOC(=O)C1CCN(Cc2nc(-c3ccc(N4CCC(C)CC4)nc3)no2)CC1 | 745 s
70 | O=C(c1ccc2c(c1)OCO2)N1CCN(c2nc(CN3CCOCC3)cs2)CC1 | 596 s
71 | Cc1ccc(C)c(N2CCN(c3ccnc(SCC(=O)Nc4cc(F)ccc4C)n3)CC2)c1 | 1040 s
72 | O=C(Nc1ccc(F)c(F)c1)C1CCCN(c2nc3ccsc3c(=O)n2Cc2ccc(F)cc2)C1 (stereo not drawn) | 1050 s
73 | COc1ccccc1N1CCN(c2cc(SCC(=O)Nc3cc(C)ccc3C)ncn2)CC1 | 1070 s
74 | CCNC(=O)N1CCc2c(c(-c3nc(-c4ccccc4)no3)nn2C)C1 | 787 s
75 | Cc1noc(-c2ccc(=O)n(CC(C)C)n2)n1 | 761 s
76 | Cc1cc(-c2nnc(-c3ccco3)o2)c(C)n1CC(=O)Nc1ccc(F)c(F)c1 | 909 s
77 | CC(C)C(=O)Nc1cc2c(cc1S(=O)(=O)c1ccc(F)cc1)n(C)c(=O)n2C | 790 s
78 | COc1cc2c(cc1OC)C(C1(O)CCCCC1)NCC2 (stereo not drawn) | 660 s
79 | Cc1cc(C)n(-c2ccnc(N3CCC(C(=O)NCCC(C)C)CC3)n2)n1 | 836 s
80 | CCOC(=O)c1noc2ncnc(N(CCN(C)C)Cc3ccccc3)c12 | 656 s
81 | Cc1ccccc1Cn1c(N2CCC(C(=O)N3CCN(c4ccccn4)CC3)CC2)nc2ccccc21 | 587 s
82 | Cc1cc(C)n(-c2ccnc(NCc3ccc(F)cc3)n2)n1 | 829 s
83 | Cc1ccc(C(=O)N2C[C@@H](Oc3ccccc3)C[C@H]2C(=O)NC2CC2)s1 | 790 s
84 | O=C1CN(C(=O)CSc2ccccc2)c2ccccc2N1 | 694 s
85 | Cc1ccc(CS(=O)Cc2ccc(C(=O)N3CCN(c4ccccn4)CC3)o2)cc1 (stereo not drawn) | 619 s
86 | Cc1ccc(NC(=O)Nc2cccc(-c3ccc(N4CCOCC4)nn3)c2)c(C)c1 | 732 s
87 | Cn1c(=O)n(C)c2cc(S(=O)(=O)c3ccc(F)cc3)c(NC(=O)Cc3cccc(F)c3)cc21 | 873 s
88 | O=C(c1ccsc1)N1CCC(Nc2ncnc3c2CCC3)CC1 | 581 s
